Data from article PMC6100724, “Proteome‐wide analysis of phospho‐regulated PDZ domain interactions” (Molecular Systems Biology, 2018).
One block for each sequence: values may come before it.

Key:
Assay in all cases: Phosphomimetic ProP-PD selection with NGS
DLG1 PDZ1 = assay type: binding, human; settings: mean of selections 1-3, bait DLG1 PDZ1; for Mean fraction #NGS counts mimetic peptide / total count selection: phosphomimetic peptide; for Mean fraction #NGS counts wt peptide / total counts selection: wild type peptide
Description: (§1) Phage selections were carried out for four rounds following a protocol by Huang and Sidhu (Huang & Sidhu, 2011) with minor modifications. Non‐specific binding phage was removed by pre‐selections against immobilized GST throughout the selection. The selections against the (pre‐)phosphorylated wild‐type library were performed in 50 mM HEPES (pH 7.4) and 150 mM NaCl (HBS) following the same procedure after pre‐phosphorylation of the library.
(§2) • Immobilize proteins (15 μg in 100 μl PBS) in a 96‐well MaxiSorp microtiter plate (NUNC) overnight at 4°C. • Start a 2YT culture of E. coli Omnimax supplemented with 100 μg/ml tetracycline to retain the F pilus epitope. • Block the wells with 200 μl 0.5% BSA in PBS for 2 h at 4°C. • Precipitate naïve phage library (10^11 cfu per selection) or amplified phage pool from the previous round of selection by adding one‐fifth the volume of PEG/NaCl. • Incubate on ice for 10 min, and pellet precipitated phage by centrifugation at 5,300 g for 15 min. Resuspend the phage pellet in 100 μl PBS per selection. • Add 100 μl of phage solution to the GST‐coated pre‐selection wells and incubate for 1 h. • Transfer the phage solution to the immobilized target proteins and allow it to bind for 2 h at 8°C. • Wash the plate four times with 200 μl cold wash buffer (PBS, 0.05% Tween‐20). • Elute bound phage by incubation with 100 μl log phase (0.6–0.8 OD600) E. coli Omnimax for 30 min at 37°C with shaking (200 RPM). • Add 10^12 cfu/ml M13K07 helper phage for hyperinfection of the bacteria and incubate as above for 45 min. • Transfer the bacterial culture to 10 ml 2YT supplemented with 50 μg/ml carbenicillin, 25 μg/ml kanamycin, and 300 μM IPTG and incubate overnight at 37°C while shaking. • Perform phage pool ELISA to monitor the progress of the selection as described previously (Huang & Sidhu, 2011).
(§3) The naïve library and the enriched phage pools of the third day of selection were amplified and barcoded by PCR and analyzed by NGS as described elsewhere (McLaughlin & Sidhu, 2013; Ivarsson et al, 2014). The reads were demultiplexed using the barcode sequences and filtered by discarding sequences with a Phred quality score under 30. Sequences were mapped to the original library using Bowtie (Langmead et al, 2009) with two mismatches between reads and library sequence. Nucleotide mutations leading to amino acid substitutions were subsequently removed. Cutoff values of NGS counts were assigned for each pool. PWMs were generated based on the remaining peptides (aligned on the C‐termini) using WebLogo (Crooks et al, 2004).
(§4) However, there was no significant correlation of the actual read counts (selection “strength”) and the initial representation in the library, reflecting the strong selection during phage display (wt+mimetic: P‐value: 0.49, ρ = −0.08, mimetic only: P‐value: 0.069, ρ = −0.2, wt only: P‐value: 0.12, ρ = 0.17). Consequently, the amount of reads for each binder after phage display is not a function of the amount of input reads in the naïve library and no modeling based on the input library frequencies to score the interactions is necessary. To allow for comparison between replicate selections, we used the fraction of NGS reads within a certain set, instead of the absolute number of NGS reads, as the absolute numbers differ between different NGS batches.

DLG1 PDZ2 = target: T1, DLG1 PDZ2 (Homo sapiens, UniProt Q12959); assay type: binding; settings: mean of selections 1-3, bait DLG1 PDZ2
T1 construct: human DLG1 PDZ2 aa 311–407 in a modified pRSET vector 40; made in house; host or cells: E. coli BL21 Gold (DE3)
Description: as §1, §2, §3, §4

Scribble PDZ1 = target: T2, Scribble PDZ1 (Homo sapiens, UniProt Q14160); assay type: binding; settings: bait Scribble PDZ1; mean of selections 1-3
T2 construct: human Scribble PDZ1 aa 719–829 in; made in house; host or cells: E. coli BL21 Gold (DE3)
Description: as §1, §2, §3, §4

Scribble PDZ2 = assay type: binding, human; settings: bait Scribble PDZ2
Description: as §1, §2, §3, §4

Scribble PDZ3 = assay type: binding, human; settings: mean over selections 1-3; bait Scribble PDZ3
Description: as §1, §2, §3, §4

[1] = mean of selections 1 and 2 (selection 3 empty)

T2 sequence (Q14160 719-829): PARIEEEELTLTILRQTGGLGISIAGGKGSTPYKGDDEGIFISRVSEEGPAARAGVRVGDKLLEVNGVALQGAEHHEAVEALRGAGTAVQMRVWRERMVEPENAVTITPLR
T1 sequence (Q12959 311-407): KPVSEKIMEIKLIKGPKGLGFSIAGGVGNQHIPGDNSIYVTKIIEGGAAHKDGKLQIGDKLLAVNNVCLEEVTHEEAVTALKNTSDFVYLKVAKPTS

Sequence: KYDKELEPV
- Mean fraction #NGS counts mimetic peptide / total count selection (DLG1 PDZ1): 0.003147

Sequence: SQSRMSTNM
- Mean fraction #NGS counts wt peptide / total counts selection (Scribble PDZ2; [1]): 0
- Mean fraction #NGS counts wt peptide / total counts selection (Scribble PDZ3): 0

Sequence: ASSPGGTVV
- Mean fraction #NGS counts wt peptide / total counts selection (DLG1 PDZ1): 2.813e-5

Sequence: RISSLESEV
- Mean fraction #NGS counts wt peptide / total counts selection (DLG1 PDZ2; wild type peptide): 0.00571
- Mean fraction #NGS counts wt peptide / total counts selection (DLG1 PDZ1): 0.0001168

Sequence: KLESIESDV
- Mean fraction #NGS counts mimetic peptide / total count selection (DLG1 PDZ1): 0

Sequence: ESGSQHTNV
- Mean fraction #NGS counts mimetic peptide / total count selection (DLG1 PDZ1): 0

Sequence: QEELKLSNL
- Mean fraction #NGS counts mimetic peptide / total count selection (Scribble PDZ2; [1]): 0.0005697

Sequence: SSGSQHTNV
- Mean fraction #NGS counts wt peptide / total counts selection (DLG1 PDZ2): 0.001066
- Mean fraction #NGS counts wt peptide / total counts selection (DLG1 PDZ1): 5.9593e-5

Sequence: SQERMETNM
- Mean fraction #NGS counts mimetic peptide / total count selection (Scribble PDZ2; [1]): 0.007678
- Mean fraction #NGS counts mimetic peptide / total count selection (Scribble PDZ3): 0.0002907

Sequence: KPERISTVV
- Mean fraction #NGS counts mimetic peptide / total count selection (DLG1 PDZ2; phosphomimetic peptide): 0.001492
- Mean fraction #NGS counts mimetic peptide / total count selection (DLG1 PDZ1): 0.0005714

Sequence: YPGSPDEWV
- Mean fraction #NGS counts mimetic peptide / total count selection (Scribble PDZ2; [1]): 0

Sequence: VVHEPETEV
- Mean fraction #NGS counts mimetic peptide / total count selection (Scribble PDZ1): 4.939e-5
- Mean fraction #NGS counts mimetic peptide / total count selection (DLG1 PDZ1): 1.207e-5

Sequence: RREEYSTTV
- Mean fraction #NGS counts mimetic peptide / total count selection (DLG1 PDZ2): 1.723e-5
- Mean fraction #NGS counts mimetic peptide / total count selection (DLG1 PDZ1): 1.94e-5

Sequence: TSLTWISTL
- Mean fraction #NGS counts wt peptide / total counts selection (Scribble PDZ2; [1]): 0

Sequence: SGEYLVTEV
- Mean fraction #NGS counts mimetic peptide / total count selection (Scribble PDZ2; mean over selections): 0.001329

Sequence: SEGHTSTTL
- Mean fraction #NGS counts mimetic peptide / total count selection (DLG1 PDZ1): 5.924e-6

Sequence: RRESYSTTV
- Mean fraction #NGS counts wt peptide / total counts selection (DLG1 PDZ2): 0.0006987
- Mean fraction #NGS counts wt peptide / total counts selection (DLG1 PDZ1): 0.005493

Sequence: QSELKLSNL
- Mean fraction #NGS counts wt peptide / total counts selection (Scribble PDZ2; [1]): 0.0009495

Sequence: KPSRISTVV
- Mean fraction #NGS counts wt peptide / total counts selection (DLG1 PDZ2; wild type peptide): 2.5129e-5
- Mean fraction #NGS counts wt peptide / total counts selection (DLG1 PDZ1): 0

Continued, in another order:

- Mean fraction #NGS counts wt peptide / total counts selection (DLG1 PDZ2): 0.02018
- Mean fraction #NGS counts wt peptide / total counts selection (Scribble PDZ1): 0.0001844
Sequence: RSRSISTDV
- Mean fraction #NGS counts wt peptide / total counts selection (Scribble PDZ2; [1]): 0.001899
- Mean fraction #NGS counts wt peptide / total counts selection (Scribble PDZ3): 0.0004544

- Mean fraction #NGS counts wt peptide / total counts selection (DLG1 PDZ2): 0.0005322
Sequence: VVSERISSV
- Mean fraction #NGS counts wt peptide / total counts selection (Scribble PDZ2; [1]): 0.003259
- Mean fraction #NGS counts wt peptide / total counts selection (Scribble PDZ2; mean over selections): 0.003259

- Mean fraction #NGS counts mimetic peptide / total count selection (DLG1 PDZ2): 5.744e-6
Sequence: SSGEQHTNV
- Mean fraction #NGS counts mimetic peptide / total count selection (DLG1 PDZ1): 0

- Mean fraction #NGS counts mimetic peptide / total count selection (Scribble PDZ1): 0.0002246
Sequence: EARLWETSI
- Mean fraction #NGS counts mimetic peptide / total count selection (DLG1 PDZ1): 3.0718e-6
- Mean fraction #NGS counts mimetic peptide / total count selection (Scribble PDZ3): 0.01196

- Mean fraction #NGS counts mimetic peptide / total count selection (DLG1 PDZ2): 0
Sequence: SGEYLVTSV
- Mean fraction #NGS counts mimetic peptide / total count selection (Scribble PDZ2; [1]): 0.001139

- Mean fraction #NGS counts mimetic peptide / total count selection (DLG1 PDZ2; phosphomimetic peptide): 0.0002179
- Mean fraction #NGS counts mimetic peptide / total count selection (Scribble PDZ1): 1.46e-5
Sequence: EGSYLVTSV

- Mean fraction #NGS counts mimetic peptide / total count selection (DLG1 PDZ2): 0
Sequence: YPAEPDSWV
- Mean fraction #NGS counts mimetic peptide / total count selection (Scribble PDZ2; [1]): 0

- Mean fraction #NGS counts wt peptide / total counts selection (DLG1 PDZ2): 0.002959
- Mean fraction #NGS counts wt peptide / total counts selection (Scribble PDZ1): 0.07558
Sequence: ARVSKETPL
- Mean fraction #NGS counts wt peptide / total counts selection (Scribble PDZ3): 0.1287

- Mean fraction #NGS counts wt peptide / total counts selection (DLG1 PDZ2): 0.00089
Sequence: ERLRVETDV
- Mean fraction #NGS counts wt peptide / total counts selection (DLG1 PDZ1): 0.0001761
- Mean fraction #NGS counts wt peptide / total counts selection (Scribble PDZ3): 0.0002834

- Mean fraction #NGS counts mimetic peptide / total count selection (DLG1 PDZ2): 0.0002982
Sequence: MRLQSETEV
- Mean fraction #NGS counts mimetic peptide / total count selection (DLG1 PDZ1): 3.405e-5
